Source: patent US6737383B1, “Herbicidal oxadiazolidines” (priority 1999, dated 2004)

Assays:
[1] = system: giant foxtail; test: Test B pre/postemergence giant foxtail; type: in vivo, Setaria faberii
Method in brief: (§1)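 Herbicidal effect was estimated by eye on a ten-point control scale after plants spent twelve to sixteen days in a greenhouse following soil or foliar treatment. Foliar sprays targeted plants at one to four leaves; all doses were formulated in a non-phytotoxic solvent with surfactant.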

[2] = system: velvetleaf; test: Test B pre/postemergence velvetleaf; type: in vivo, Abutilon theophrasti
Method in brief: as §1

[3] = system: surinam grass; test: Test B pre/postemergence surinam grass; type: in vivo, Brachiaria decumbens
Method in brief: as §1

[4] = system: pigweed; test: Test B pre/postemergence pigweed; type: in vivo, Amaranthus retroflexus
Method in brief: as §1

[5] = system: bedstraw; test: Test B pre/postemergence bedstraw; type: in vivo, Galium aparine
Method in brief: as §1

[6] = system: sugar beet; test: Test B pre/postemergence sugar beet; type: in vivo, Beta vulgaris
Method in brief: as §1

[7] = system: corn; test: Test B pre/postemergence corn; type: in vivo, Zea mays
Method in brief: as §1

[8] = system: crabgrass; test: Test B pre/postemergence crabgrass; type: in vivo, Digitaria sanguinalis
Method in brief: as §1

[9] = system: cocklebur; test: Test B pre/postemergence cocklebur; type: in vivo, Xanthium strumarium
Method in brief: as §1

[10] = system: soybean; test: Test B pre/postemergence soybean; type: in vivo, Glycine max
Method in brief: as §1

[11] = system: rape; test: Test B pre/postemergence rape; type: in vivo, Brassica napus
Method in brief: as §1

[12] = system: purple nutsedge; test: Test B pre/postemergence purple nutsedge; type: in vivo, Cyperus rotundus
Method in brief: as §1

[13] = system: wheat; test: Test B pre/postemergence wheat; type: in vivo, Triticum aestivum
Method in brief: as §1

[14] = system: wild oat; test: Test B pre/postemergence wild oat; type: in vivo, Avena fatua
Method in brief: as §1

[15] = system: morningglory; test: Test B pre/postemergence morningglory; type: in vivo, Ipomoea hederacea
Method in brief: as §1

[16] = system: blackgrass; test: Test B pre/postemergence blackgrass; type: in vivo, Alopecurus myosuroides
Method in brief: as §1

[17] = Postemergence, Rate 62 g/ha, scale of 0 to 10, 0 is no effect, 10 is complete control
[18] = Postemergence, Rate 125 g/ha, scale 0 to 10, 0 is no effect, 10 is complete control
[19] = Postemergence, Rate 500 g/ha, scale 0 to 10, 0 is no effect, 10 is complete control
[20] = Preemergence, Rate 62 g/ha, scale of 0 to 10 where 0 is no effect and 10 is complete control
[21] = Preemergence, Rate 125 g/ha, scale 0 to 10, 0 is no effect, 10 is complete control
[22] = Preemergence, Rate 500 g/ha, scale of 0 to 10 where 0 is no effect and 10 is complete control
[23] = Preemergence, Rate 250 g/ha, scale 0 to 10, 0 is no effect, 10 is complete control
[24] = Preemergence, Rate 500 g/ha, scale 0 to 10, 0 is no effect, 10 is complete control
[25] = Postemergence, Rate 250 g/ha, scale 0 to 10
[26] = Preemergence, Rate 125 g/ha, scale of 0 to 10 where 0 is no effect and 10 is complete control
[27] = Preemergence, Rate 250 g/ha, scale 0 (no effect) to 10 (complete control)
[28] = Rate 500 g/ha, Preemergence, scale 0 to 10 (0 no effect, 10 complete control)

## CCOCn1c(=O)on(C(=O)N(c2ccc(F)cc2F)C(C)C)c1=O [Compound 504]
[1]; [17]
  Giant foxtail plant response rating: 8
[1]; [18]
  Giant foxtail plant response rating: 9
[1]; [19]
  Plant response rating, Giant foxtail: 9
[1]; [20]
  Plant response rating, Giant foxtail: 9
[1]; [21]
  Giant foxtail plant response rating: 9
[1]; [22]
  Giant foxtail plant response rating: 10
[2]; [17]
  Velvetleaf plant response rating: 1
[2]; [18]
  Velvetleaf plant response rating: 4
[2]; [19]
  Plant response rating, Velvetleaf: 7
[2]; [20]
  Plant response rating, Velvetleaf: 1
[2]; [21]
  Velvetleaf plant response rating: 5
[2]; [22]
  Velvetleaf plant response rating: 10
[3]; [17]
  B. signalgrass plant response rating: 0
[3]; [18]
  B. signalgrass plant response rating: 3
[3]; Postemergence, Rate 250 g/ha, scale 0 to 10, 0 no effect, 10 complete control
  B. signalgrass plant response rating: 8
[3]; [19]
  Plant response rating, B. signalgrass: 9
[3]; [20]
  Plant response rating, B. signalgrass: 7
[3]; [21]
  B. signalgrass plant response rating: 10
[3]; [23]
  B. signalgrass plant response rating: 10
[3]; [24]
  B. signalgrass plant response rating: 10
[4]; [17]
  Redroot pigweed plant response rating: 7
[4]; [18]
  Redroot pigweed plant response rating: 8
[4]; [19]
  Plant response rating, Redroot pigweed: 9
[4]; [20]
  Plant response rating, Redroot pigweed: 10
[4]; [21]
  Redroot pigweed plant response rating: 10
[4]; [22]
  Redroot pigweed plant response rating: 10
[5]; [18]
  Bedstraw plant response rating: 8
[5]; [19]
  Plant response rating, Bedstraw: 9
[5]; [20]
  Plant response rating, Bedstraw: 2
[5]; [21]
  Bedstraw plant response rating: 5
[5]; [23]
  Bedstraw plant response rating: 8
[5]; [24]
  Bedstraw plant response rating: 8
[6]; [17]
  Sugarbeets plant response rating: 5
[6]; [18]
  Sugarbeets plant response rating: 7
[6]; [19]
  Plant response rating, Sugarbeets: 9
[6]; [20]
  Plant response rating, Sugarbeets: 4
[6]; [21]
  Sugarbeets plant response rating: 6
[6]; [22]
  Sugarbeets plant response rating: 9
[7]; [17]
  Corn plant response rating: 0
[7]; [18]
  Corn plant response rating: 2
[7]; [25]
  Corn plant response rating: 2
[7]; [19]
  Plant response rating, Corn: 6
[7]; [20]
  Plant response rating, Corn: 0
[7]; [21]
  Corn plant response rating: 5
[7]; [22]
  Corn plant response rating: 6
[8]; [17]
  Crabgrass plant response rating: 8
[8]; [18]
  Crabgrass plant response rating: 8
[8]; [25]
  Crabgrass plant response rating: 9
[8]; [19]
  Plant response rating, Crabgrass: 10
[8]; [20]
  Plant response rating, Crabgrass: 6
[8]; [21]
  Crabgrass plant response rating: 6
[8]; [22]
  Crabgrass plant response rating: 10
[9]; [17]
  Cocklebur plant response rating: 2
[9]; [18]
  Cocklebur plant response rating: 3
[9]; [25]
  Cocklebur plant response rating: 6
[9]; [19]
  Plant response rating, Cocklebur: 6
[9]; [20]
  Plant response rating, Cocklebur: 0
[9]; [21]
  Cocklebur plant response rating: 0
[9]; [23]
  Cocklebur plant response rating: 0
[9]; [22]
  Cocklebur plant response rating: 0
[10]; [17]
  Soybean plant response rating: 3
[10]; [18]
  Soybean plant response rating: 6
[10]; [19]
  Plant response rating, Soybean: 7
[10]; [20]
  Plant response rating, Soybean: 0
[10]; [21]
  Soybean plant response rating: 0
[10]; [22]
  Soybean plant response rating: 5
[11]; [17]
  Rape plant response rating: 1
[11]; [18]
  Rape plant response rating: 4
[11]; [19]
  Plant response rating, Rape: 8
[11]; [20]
  Plant response rating, Rape: 5
[11]; [21]
  Rape plant response rating: 10
[11]; [22]
  Rape plant response rating: 10
[12]; [17]
  Nutsedge plant response rating: 0
[12]; [18]
  Nutsedge plant response rating: 0
[12]; [19]
  Plant response rating, Nutsedge: 3
[12]; [20]
  Plant response rating, Nutsedge: 2
[12]; [21]
  Nutsedge plant response rating: 0
[12]; [22]
  Nutsedge plant response rating: 8
[13]; [17]
  Wheat plant response rating: 0
[13]; [18]
  Wheat plant response rating: 3
[13]; [19]
  Plant response rating, Wheat: 6
[13]; [20]
  Plant response rating, Wheat: 2
[13]; [21]
  Wheat plant response rating: 6
[13]; [22]
  Wheat plant response rating: 8
[14]; [17]
  Wild oats plant response rating: 0
[14]; [18]
  Wild oats plant response rating: 6
[14]; [19]
  Plant response rating, Wild oats: 7
[14]; [20]
  Plant response rating, Wild oats: 6
[14]; [21]
  Wild oats plant response rating: 8
[14]; [22]
  Wild oats plant response rating: 10
[15]; [17]
  Morningglory plant response rating: 4
[15]; [18]
  Morningglory plant response rating: 4
[15]; [19]
  Plant response rating, Morningglory: 6
[15]; [20]
  Plant response rating, Morningglory: 0
[15]; [21]
  Morningglory plant response rating: 0
[15]; [22]
  Morningglory plant response rating: 4
[16]; [17]
  Blackgrass plant response rating: 6
[16]; [18]
  Blackgrass plant response rating: 7
[16]; [25]
  Blackgrass plant response rating: 7
[16]; [19]
  Plant response rating, Blackgrass: 8
[16]; [20]
  Plant response rating, Blackgrass: 6
[16]; [21]
  Blackgrass plant response rating: 8
[16]; [23]
  Blackgrass plant response rating: 10
[16]; [22]
  Blackgrass plant response rating: 10

## COC(CCl)n1c(=O)on(C(=O)N(c2ccccc2)C(C)C)c1=O (stereo not drawn) [Compound 735]
[1]; [20]
  Giant foxtail plant response rating: 9
[1]; [26]
  Plant response rating, Giant foxtail: 10
[1]; [27]
  Giant foxtail plant response rating: 10
[1]; [28]
  Giant foxtail plant response rating: 10
[2]; [20]
  Velvetleaf plant response rating: 0
[2]; [26]
  Plant response rating, Velvetleaf: 0
[2]; [27]
  Velvetleaf plant response rating: 3
[2]; [28]
  Velvetleaf plant response rating: 3
[3]; [20]
  B. signalgrass plant response rating: 7
[3]; [26]
  Plant response rating, B. signalgrass: 8
[3]; [27]
  B. signalgrass plant response rating: 9
[3]; [28]
  B. signalgrass plant response rating: 10
[4]; [20]
  Redroot pigweed plant response rating: 5
[4]; [26]
  Plant response rating, Redroot pigweed: 7
[4]; [27]
  Redroot pigweed plant response rating: 8
[4]; [28]
  Redroot pigweed plant response rating: 9
[5]; [20]
  Bedstraw plant response rating: 0
[5]; [26]
  Plant response rating, Bedstraw: 0
[5]; [27]
  Bedstraw plant response rating: 0
[5]; [28]
  Bedstraw plant response rating: 0
[6]; [20]
  Sugarbeets plant response rating: 0
[6]; [26]
  Plant response rating, Sugarbeets: 2
[6]; [27]
  Sugarbeets plant response rating: 6
[6]; [28]
  Sugarbeets plant response rating: 7
[7]; [20]
  Corn plant response rating: 0
[7]; [26]
  Plant response rating, Corn: 6
[7]; [27]
  Corn plant response rating: 8
[7]; [28]
  Corn plant response rating: 9
[8]; [20]
  Crabgrass plant response rating: 10
[8]; [26]
  Plant response rating, Crabgrass: 10
[8]; [27]
  Crabgrass plant response rating: 10
[8]; [28]
  Crabgrass plant response rating: 10
[9]; [20]
  Cocklebur plant response rating: 0
[9]; [26]
  Plant response rating, Cocklebur: 0
[9]; [27]
  Cocklebur plant response rating: 0
[9]; [28]
  Cocklebur plant response rating: 0
[10]; [20]
  Soybean plant response rating: 0
[10]; [26]
  Plant response rating, Soybean: 0
[10]; [27]
  Soybean plant response rating: 0
[10]; [28]
  Soybean plant response rating: 0
[11]; [20]
  Rape plant response rating: 1
[11]; [26]
  Plant response rating, Rape: 6
[11]; [27]
  Rape plant response rating: 8
[11]; [28]
  Rape plant response rating: 8
[12]; [20]
  Nutsedge plant response rating: 0
[12]; [27]
  Nutsedge plant response rating: 0
[13]; [20]
  Wheat plant response rating: 0
[13]; [26]
  Plant response rating, Wheat: 0
[13]; [28]
  Wheat plant response rating: 2
[14]; [20]
  Wild oats plant response rating: 6
[14]; [26]
  Plant response rating, Wild oats: 8
[14]; [27]
  Wild oats plant response rating: 8
[14]; [28]
  Wild oats plant response rating: 10
[15]; [20]
  Morningglory plant response rating: 0
[15]; [26]
  Plant response rating, Morningglory: 0
[15]; [27]
  Morningglory plant response rating: 2
[15]; [28]
  Morningglory plant response rating: 2
[16]; [20]
  Blackgrass plant response rating: 8
[16]; [26]
  Plant response rating, Blackgrass: 10
[16]; [27]
  Blackgrass plant response rating: 10
[16]; [28]
  Blackgrass plant response rating: 10
